Results published in US6680335B2, “Methods of modulating protein tyrosine kinase function with substituted indolinone compounds” (Sugen, Inc., priority 1998, dated 2004).
Where “and” joins values, the source holds several entries; their conditions need not be identical. Equal values may be shown once.

Assays:
EGFR protein = target: T1, EGFR protein (Homo sapiens, UniProt P00533); experiment: ELISA assay measuring the kinase activity of the EGF receptor (captured from A431 cell lysate); assay type: biochemical
T1 construct: Add 120 μL TBS to ELISA plate containing captured EGFR; endogenous in cells; host or cells: A431 cells (lysate, captured with SUMO1 anti-EGFR antibody)
Description: The following protocol describes the reagents and procedures used to analyze protein tyrosine kinase activity on the EGFR protein.
2. SUMO1 monoclonal anti-EGFR antibody
All of the following steps are conducted at room temperature unless it is specifically indicated. All ELISA plate washing is by rinsing 4× with TBST.
1. Coat Corning 96 well ELISA plates with 0.5 μ/well of SUMO1 in a volume of 100 μL PBS. Store overnight at 4° C.
2. Remove unbound SUMO1 by inverting plate to remove liquid. Wash plates with distilled water. Pat plate on a paper towel to remove excess liquid and bubbles
3. Add 150 μL of Blocking Buffer to each well. Incubate while shaking on a microliter plate shaker at room temperature for 30 min.
4. Wash 3× with deionized water, then once with TBST. Pat plate on a paper towel to remove excess liquid and bubbles.
5. Dilute lysate in PBS (7 μg of lysate/100 μL of PBS).
6. Add 100 μL of diluted lysate to each well. Shake at room temperature for 60 min.
7. Wash as described in step 4.
8. Add 120 μL TBS to ELISA plate containing captured EGFR.
9. Dilute drugs/extracts 1:10 (unless specified otherwise) in TBS in 96-well polypropylene plates.
10. Add 13.5 μL diluted drugs/extracts to ELISA plate.
11. Incubate for 30 minutes while shaking at room temperature.
12. […] Incubate while shaking on a micro-liter plate shaker at room temperature for 5 min.
13. Stop Kinase reaction with the addition of 16.5 μL of 200 mM EDTA pH 8.0 to all wells.
14. Wash 4× with deionized water and twice with TBST.
15. Add 100 μL per well of anti-phosphotyrosine (1:3000 dilution in TBST). Incubate while shaking on a micro-liter plate shaker 30-45 minutes at room temperature while shaking.
16. Wash as described in step 4.
17. Add 100 μL per well of biosource Goat anti-rabbit IgG peroxidase conjugate (1:2000 dilution in TBST). Incubate 30 min. at room temperature while shaking.
18. Wash as described in step 4.
19. Add 100 μL of ABTS/H2O2 solution to each well.
20. Incubate 5 to 15 minutes while shaking. Remove any bubbles.
21. If necessary stop reaction with the addition of 10 μL of 0.2 M HCl/well.
22. Read assay on Dynatech MR7000 ELISA Plate Reader.
(§1) The IC50 values were measured for several of the compounds of the invention.

pyk-2 protein kinase = target: T2, pyk-2 protein kinase (Homo sapiens, UniProt Q14289); experiment: Assay measuring PYK-2 protein kinase activity (phosphorylation of a biotinylated peptide); assay type: biochemical; conditions: pyk-2 from transformed yeast lysate, 5 μM ATP; for inhibition at 100 µM: compound at 100 μM; for IC50: cells without %
T2 construct: made in house; host or cells: Schizosaccharomyces pombe strain SP200, pRSP expression plasmids
Description: This assay is used to determine pyk-2 protein kinase activity measuring phosphorylation of a biotinylated peptide as the readout.
a. Yeast transformed with pyk-2.
b. Cell lysates: Yeast cells expressing pyk-2 are pelleted, washed once with water, re-pelleted and stored at −80° C. until use.
c. N-terminus biotinylated […] is prepared by standard procedures well known to those skilled in the art.
h. […] S. Pombe strain SP200 (h-s leul.32 ura4 ade21O) was grown as described and transformations were pRSP expression plasmids were done by the lithium acetate method (Superti-Furga, supra). Cells were grown in the presence of 1 μM thiamine to repress expression from the nmtl promoter or in the absence of thiamine to induce expression.
a. Preparation of pyk-2 coated ELISA plate.
1. Coat ELISA plate with 0.5 μg/well anti-pyk-2 mab in 100 μL of pH 9.6 sodium carbonate buffer at 4° C. overnight.
2. Wash wells once with PBS.
3. Block plate with 0.15 mL 5% milk in PBS for 30 min. at room temperature.
4. Wash plate 5× with PBS.
5. Add 10 μg/well of pyk-2 transformed yeast lysates diluted in Lysis Buffer (0.1 mL total volume per well). (Amount of lysate may vary between hatches.) Shake plate for 20 minutes at room temperature.
b. Preparation of phosphotyrosine antibody-coated ELISA plate.
1. 4G10 plate: coat 0.5 μg/well 4G10 in 100 μL PBS overnight at 4° C. and block with 150 μL of 5% milk in PBS for 30 minutes at room temperature.
c. Kinase assay procedure.
1. Remove unbound proteins from steps 1-7, above, and wash plates 5× with PBS.
2. Add 0.08 mL Kinase Reaction Mixture per well (containing […] of 10×Kinase Buffer and 10 pM (final concentration) biotin-[…] per well diluted in water.
3. Add 10 μL of compound diluted in water containing 10% DMSO and pre-incubate for 15 minutes at room temperature.
4. Start kinase reaction by adding 10 μL/well of 0.05 mM ATP in water (5 μM ATP final).
5. Shake ELISA plate for 15 min. at room temperature.
6. Stop kinase reaction by adding 10 μL of 0.5 M EDTA per well.
7. Transfer 90 μL supernatant to a blocked 4G10 coated ELISA plate from section B, above.
8. Incubate for 30 min. while shaking at room temperature.
9. Wash plate 5× with TBST.
10. Incubate with Vectastain ELITE ABC reagent (100 μL/well) for 30 min. at room temperature.
11. Wash the wells 5× with TBST.
12. Develop with Turbo TMB.
as §1

T2 sequence (Q14289 whole entry): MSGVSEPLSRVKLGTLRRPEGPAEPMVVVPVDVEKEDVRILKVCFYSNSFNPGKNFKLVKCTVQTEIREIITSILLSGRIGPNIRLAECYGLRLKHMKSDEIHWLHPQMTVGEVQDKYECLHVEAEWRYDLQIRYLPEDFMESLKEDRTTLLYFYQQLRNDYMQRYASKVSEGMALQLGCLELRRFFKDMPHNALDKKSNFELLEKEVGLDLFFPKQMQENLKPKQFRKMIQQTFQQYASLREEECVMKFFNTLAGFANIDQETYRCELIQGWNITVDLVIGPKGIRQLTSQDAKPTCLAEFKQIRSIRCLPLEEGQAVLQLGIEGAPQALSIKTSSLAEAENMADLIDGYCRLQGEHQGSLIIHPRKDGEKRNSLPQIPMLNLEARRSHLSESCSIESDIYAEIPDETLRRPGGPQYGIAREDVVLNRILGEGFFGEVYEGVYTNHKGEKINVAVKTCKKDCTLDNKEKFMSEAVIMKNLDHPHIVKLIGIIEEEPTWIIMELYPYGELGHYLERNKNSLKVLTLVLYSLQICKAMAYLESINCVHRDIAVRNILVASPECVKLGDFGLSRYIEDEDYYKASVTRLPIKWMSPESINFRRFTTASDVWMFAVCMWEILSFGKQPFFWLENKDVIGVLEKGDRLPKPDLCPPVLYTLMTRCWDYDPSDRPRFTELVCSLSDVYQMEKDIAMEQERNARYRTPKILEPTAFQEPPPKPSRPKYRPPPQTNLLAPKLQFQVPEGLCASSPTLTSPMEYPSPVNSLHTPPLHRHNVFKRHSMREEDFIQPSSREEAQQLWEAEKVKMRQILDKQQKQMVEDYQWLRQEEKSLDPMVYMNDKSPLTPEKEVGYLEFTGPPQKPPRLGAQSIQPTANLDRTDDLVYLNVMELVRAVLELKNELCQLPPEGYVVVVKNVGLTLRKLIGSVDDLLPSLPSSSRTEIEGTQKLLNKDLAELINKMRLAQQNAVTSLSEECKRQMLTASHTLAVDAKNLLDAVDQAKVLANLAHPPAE
T1 sequence (P00533 25-1210): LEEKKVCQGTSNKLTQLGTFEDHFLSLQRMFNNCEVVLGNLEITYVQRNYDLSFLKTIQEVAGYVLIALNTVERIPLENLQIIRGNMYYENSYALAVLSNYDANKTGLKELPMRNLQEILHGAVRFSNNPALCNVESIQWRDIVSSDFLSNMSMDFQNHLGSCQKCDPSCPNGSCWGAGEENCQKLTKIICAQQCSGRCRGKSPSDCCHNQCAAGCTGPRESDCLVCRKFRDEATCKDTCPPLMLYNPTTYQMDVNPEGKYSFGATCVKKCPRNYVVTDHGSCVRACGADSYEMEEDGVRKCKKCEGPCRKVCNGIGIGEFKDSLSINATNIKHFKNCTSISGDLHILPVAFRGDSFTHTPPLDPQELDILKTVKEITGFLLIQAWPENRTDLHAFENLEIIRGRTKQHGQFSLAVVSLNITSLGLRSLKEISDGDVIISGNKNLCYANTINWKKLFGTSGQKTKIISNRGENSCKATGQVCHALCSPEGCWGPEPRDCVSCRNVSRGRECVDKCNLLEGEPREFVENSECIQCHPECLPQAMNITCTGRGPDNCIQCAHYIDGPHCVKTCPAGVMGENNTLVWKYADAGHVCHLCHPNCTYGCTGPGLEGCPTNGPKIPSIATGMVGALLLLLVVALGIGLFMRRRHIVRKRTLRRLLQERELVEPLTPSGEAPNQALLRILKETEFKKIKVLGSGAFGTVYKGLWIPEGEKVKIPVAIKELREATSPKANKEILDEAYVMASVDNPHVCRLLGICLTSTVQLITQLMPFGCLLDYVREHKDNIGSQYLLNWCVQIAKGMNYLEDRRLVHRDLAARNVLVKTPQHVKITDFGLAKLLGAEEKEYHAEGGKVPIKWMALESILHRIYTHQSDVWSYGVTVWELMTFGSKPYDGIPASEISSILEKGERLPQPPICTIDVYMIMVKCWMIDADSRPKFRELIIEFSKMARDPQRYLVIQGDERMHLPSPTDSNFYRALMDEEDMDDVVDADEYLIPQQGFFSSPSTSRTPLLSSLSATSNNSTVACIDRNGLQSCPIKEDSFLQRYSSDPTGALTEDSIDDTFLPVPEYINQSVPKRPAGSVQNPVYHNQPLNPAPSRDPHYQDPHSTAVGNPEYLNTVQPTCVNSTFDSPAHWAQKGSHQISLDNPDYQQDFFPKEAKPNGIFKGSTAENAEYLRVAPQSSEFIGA

Structure (SMILES) | IC50 (EGFR protein) | inhibition at 100 µM (pyk-2 protein kinase) [%] | IC50 (pyk-2 protein kinase) [µM]
Cc1ccc2c(c1)/C(=C/c1[nH]c3ccccc3c1C)C(=O)N2 [IN-001, 5-Methyl-3-(3-methyl-1H-indol-2-ylmethylene)-1,3-dihydro-indol-2-one] | > 100 µM | -16 | –
Cc1c(/C=C2\C(=O)Nc3ccc(S(N)(=O)=O)cc32)[nH]c2ccccc12 [IN-002, 3-(3-Methyl-1H-indol-2-ylmethylene)-2-oxo-2,3-dihydro-1H-indole-5-sulfonic acid amide] | > 100 µM | 46.7 | –
Cc1c(/C=C2\C(=O)Nc3ccc(C(=O)O)cc32)[nH]c2ccccc12 [IN-005, 3-(3-Methyl-1H-indol-2-ylmethylene)-2-oxo-2,3-dihydro-1H-indole-5-carboxylic acid] | 8.2 µM | – | 0.22
CC(=O)c1ccc2c(c1)C(=Cc1[nH]c3ccccc3c1C)C(=O)N2 [IN-006, 5-Acetyl-3-(3-methyl-1H-indol-2-ylmethylene)-1,3-dihydro-indol-2-one] | > 100 µM and 30.8 µM | 27 | –
CC(=O)c1ccc2c(c1)C(=Cc1cc3ccccc3[nH]1)C(=O)N2 [IN-007, 5-Acetyl-3-(1H-indol-2-ylmethylene)-1,3-dihydro-indol-2-one] | > 100 µM | 17.9 | –
NS(=O)(=O)c1ccc2c(c1)/C(=C/c1cc3ccccc3[nH]1)C(=O)N2 [IN-008, 3-(1H-Indol-2-ylmethylene)-2-oxo-2,3-dihydro-1H-indole-5-sulfonic acid amide] | > 100 µM | – | 9.6
Nc1ccc2c(c1)/C(=C/c1cc3ccccc3[nH]1)C(=O)N2 [IN-009, 5-Amino-3-(1H-indol-2-ylmethylene)-1,3-dihydro-indol-2-one] | > 100 µM | – | 0.68
O=C1Nc2ccc(C(=O)O)cc2/C1=C/c1cc2ccccc2[nH]1 [IN-010, 3-(1H-Indol-2-ylmethylene)-2-oxo-2,3-dihydro-1H-indole-5-carboxylic acid] | > 100 µM | – | 3.4
O=C1Nc2cc(Cl)ccc2/C1=C/c1cc2ccccc2[nH]1 [IN-011, 6-Chloro-3-(1H-indol-2-ylmethylene)-1,3-dihydro-indol-2-one] | > 100 µM | 7.4 | –
O=C1Nc2ccccc2/C1=C/c1cc2ccccc2[nH]1 [IN-012, 3-(1H-Indol-2-ylmethylene)-1,3-dihydro-indol-2-one] | > 100 µM | 5.1 | –
O=C1Nc2ccc(Cl)cc2/C1=C/c1cc2ccccc2[nH]1 [IN-013, 5-chloro-3-(1H-indol-2-ylmethylene)-1,3-dihydro-indol-2-one] | > 100 µM | -12 | –
Cc1c(/C=C2\C(=O)Nc3ccccc32)[nH]c2ccccc12 [IN-016, 3-(3-Methyl-1H-indol-2-ylmethylene)-1,3-dihydro-indol-2-one] | > 100 µM | -12.5 | –
Cc1c(/C=C2\C(=O)Nc3ccc(Cl)cc32)[nH]c2ccccc12 [IN-017, 5-Chloro-3-(3-methyl-1H-indol-2-ylmethylene)-1,3-dihydro-indol-2-one] | > 100 µM | -12 | –
Cc1c(/C=C2\C(=O)Nc3ccc(Br)cc32)[nH]c2ccccc12 [IN-018, 5-Bromo-3-(3-methyl-1H-indol-2-ylmethylene)-1,3-dihydro-indol-2-one] | 17.8 µM and > 100 µM | 62 | –
Cc1cccc2c1/C(=C/c1[nH]c3ccccc3c1C)C(=O)N2 [IN-019, 4-Methyl-3-(3-methyl-1H-indol-2-ylmethylene)-1,3-dihydro-indol-2-one] | > 100 µM | -36 | –
